Experimental data taken from PubChem BioAssay (NCI).
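Cells were grown in 96-well plates and exposed to each compound for 48 hours at five concentrations; endpoints were interpolated linearly between bracketing concentrations, or set to the highest concentration if not reached. GI50 is the concentration that inhibits growth by half. Definition used: TGI = concentration required for complete inhibition of growth.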

Assays:
Test in all cases: NCI tumour cell line growth inhibition, 48 h
RPMI-8226 leukemia = test system: RPMI-8226 leukemia
KM12 colon = test system: KM12 colon
MALME-3M melanoma = test system: MALME-3M melanoma
SNB-19 CNS = test system: SNB-19 CNS
OVCAR-5 ovarian = test system: OVCAR-5 ovarian
CAKI-1 renal = test system: CAKI-1 renal
U251 CNS = test system: U251 CNS
RXF 393 renal = test system: RXF 393 renal
SN12C renal = test system: SN12C renal
K-562 leukemia = test system: K-562 leukemia
HT29 colon = test system: HT29 colon
T-47D breast = test system: T-47D breast
PC-3 prostate = test system: PC-3 prostate
MDA-N = test system: MDA-N
HS 578T breast = test system: HS 578T breast

Structure (SMILES)	TGI (RPMI-8226 leukemia) [µM]	TGI (KM12 colon) [µM]	TGI (MALME-3M melanoma) [µM]	TGI (SNB-19 CNS) [µM]	TGI (OVCAR-5 ovarian) [µM]	TGI (CAKI-1 renal) [µM]	TGI (U251 CNS) [µM]	TGI (RXF 393 renal) [µM]	TGI (SN12C renal) [µM]	TGI (K-562 leukemia) [µM]	TGI (HT29 colon) [µM]	TGI (T-47D breast) [µM]	TGI (PC-3 prostate) [µM]	TGI (MDA-N) [µM]	TGI (HS 578T breast) [µM]	GI50 (SN12C renal) [µM]	GI50 (HT29 colon) [µM]
O=c1[nH]nc2c3n[nH]c(=O)n3c3ccccc3n12	> 100	> 100	> 100	> 100	> 100	> 100	> 100	> 100	> 100	> 100	> 100	–	–	–	–	–	–
CC(=O)NC1C(OCc2ccccc2)OC(CO)C(O)C1OCC(=O)NC(C)C(=O)NC(CCC(=O)OCCNC(=O)c1cccc2cc3ccccc3nc12)C(N)=O (stereo unspecified)	19.3	56.3	31.4	78.8	69.3	30.2	53.5	39.7	> 100	> 100	> 100	54.6	> 100	> 100	–	–	–
COc1ccccc1OCc1nnc(SCC(=O)O)n1-c1ccccc1	> 100	> 100	> 100	–	> 100	–	> 100	–	> 100	–	> 100	–	–	–	–	–	–
COc1cc2c(cc1OC)[C@]1(O)C(=O)c3ccc4c(c3O[C@@H]1CO2)C[C@H](C(C)(C)O)O4	> 100	> 100	> 100	> 100	> 100	–	> 100	> 100	–	> 100	> 100	–	–	–	–	–	–
CCOC(=O)C1C(=O)CC(C)(O)C(C(=O)OCC)C1c1ccc(O)c(OC)c1 (stereo unspecified)	–	> 100	> 100	> 100	> 100	> 100	> 100	> 100	> 100	> 100	> 100	> 100	> 100	> 100	–	–	–
O=c1oc2ccccc2c(O)c1C(c1ccc([N+](=O)[O-])cc1)c1c(O)c2ccccc2oc1=O	–	> 100	> 100	> 100	–	> 100	> 100	–	> 100	–	> 100	> 100	> 100	> 100	> 100	–	–
c1ccc(SCCP(CCP(c2ccccc2)c2ccccc2)c2ccccc2)cc1 (stereo unspecified)	> 66.3	> 51	> 59.1	> 100	> 100	63.3	> 100	> 100	> 88.6	> 100	> 100	79.1	–	> 100	> 100	–	–
CCCN(CCC)C(=O)Cc1c2n(c3ccccc13)CCCc1ccccc1-2	37.6	25.2	26.8	27.7	–	28.4	29.4	22.4	29.2	37.4	26	–	–	–	–	–	–
COc1cccc2c1[C@H](OC)[C@]13O[C@@]1(C2=O)[C@H](O)[C@H](C)[C@@](O)(C(=O)[C@@H]1O[C@H]1C)[C@@H]3O	0.411	> 36.5	0.523	–	2.05	0.88	3.1	1.1	0.819	> 100	1.11	–	–	0.768	0.618	0.0489	0.251
C=C(Cl)C(Br)(CCl)CCC(Cl)C(C)C (stereo unspecified) (tested in a mixture with another compound)	–	3.55	7.07	10.7	6.69	7.54	3.14	3.93	3.08	24.2	2.75	–	10.6	3.45	7.48	–	–
N[C@H]1CCc2c1nc1c(c2-c2ccccc2)CC[C@@H]1N	> 100	> 100	31.9	> 100	59.7	33.7	55.3	–	> 100	26.6	26	–	29.5	–	–	–	–
O=C1c2ccccc2N2OC3C4CCC(C4)C3C12c1ccccc1 (stereo unspecified)	> 100	–	> 100	> 100	–	–	> 100	77.8	> 100	> 100	> 100	–	–	–	–	–	–
O=C(Cc1ccccc1)NN1C(=O)C(Cl)C1c1cc(Br)cc(Br)c1O (stereo unspecified)	29.1	> 100	51.9	38.9	38.5	78.5	31.4	40.4	> 100	34.1	63.4	–	–	–	–	–	–
C1CSCCSS[C@@H]2CCCCC2SC1 (stereo partly specified)	–	> 100	–	> 100	> 100	–	> 100	–	> 100	> 100	> 100	> 100	> 100	> 100	–	–	–
COc1ccc(CCNC(=O)Cc2ccccc2CCO)cc1OC	> 100	> 100	–	> 100	> 100	> 100	> 100	> 100	> 100	> 100	> 100	> 100	> 100	–	> 100	–	–
CCCCNC(=O)C1=C(C)NC(C)=C(C(=O)NCCCC)C1	–	> 100	–	> 100	> 100	> 100	> 100	> 100	> 100	–	> 100	> 100	–	> 100	–	–	–
CC(=O)C1CC2(c3ccccc3)C(=O)c3ccccc3N2O1 (stereo unspecified)	> 100	–	> 100	> 100	–	–	> 100	> 100	> 100	> 100	> 100	–	–	–	–	–	–
Nc1nonc1-c1noc(-c2nonc2N)[n+]1[O-]	> 100	> 100	42.5	> 100	> 100	51.6	> 100	51.1	> 100	> 100	33.6	–	> 100	> 100	> 100	–	–

Structure (SMILES)	TGI (RPMI-8226 leukemia) [µM]	TGI (KM12 colon) [µM]	TGI (MALME-3M melanoma) [µM]	TGI (SNB-19 CNS) [µM]	TGI (OVCAR-5 ovarian) [µM]	TGI (CAKI-1 renal) [µM]	TGI (U251 CNS) [µM]	TGI (RXF 393 renal) [µM]	TGI (SN12C renal) [µM]	TGI (K-562 leukemia) [µM]	TGI (HT29 colon) [µM]	TGI (T-47D breast) [µM]	TGI (PC-3 prostate) [µM]	TGI (MDA-N) [µM]	TGI (HS 578T breast) [µM]	GI50 (SN12C renal) [µM]	GI50 (HT29 colon) [µM]
CCCCCCCCCCCCCCCCCCNc1ccn(C2OC(COP(=O)(O)OCCCCCCCCCCCCCCCC)C(O)C2O)c(=O)n1 (stereo unspecified)	> 100	> 100	–	> 100	> 100	> 100	> 100	> 100	> 100	> 100	> 100	> 100	> 100	–	> 100	–	–
c1ccc(N=C2SC(c3ccccc3)CN2C23CC4CC(CC(C4)C2)C3)cc1 (stereo unspecified)	> 100	> 100	> 100	> 100	> 100	> 100	> 100	> 100	> 100	> 100	> 100	–	> 100	> 100	> 100	–	–
COc1cccc(N2CCc3c(C)c(C#N)c4nc5ccccc5n4c32)c1	–	–	> 100	> 100	> 100	–	> 100	> 100	> 100	> 100	> 100	–	> 100	> 100	60.7	–	–
O=c1cc2oc3ccc4ccccc4c3cc-2c(=O)[nH]1	> 100	42.7	30.3	27.2	32.4	28.8	22	–	–	82.1	32.2	–	22.4	23.8	58.4	–	–
COc1ccc(/C=C/c2cc(=O)cc(/C=C/c3ccc(OC)c(O)c3)o2)cc1O	1.99	4.26	–	> 39	24	12	4.21	2.96	> 33.6	> 100	4.1	10.8	12.3	–	> 100	–	–
CC1(Br)C(=O)NC(=O)N([C@H]2C[C@H](O)[C@@H](CO)O2)C1N=[N+]=[N-] (stereo partly specified)	> 100	> 100	> 100	> 100	> 100	> 100	> 100	> 100	> 100	> 100	> 100	–	–	–	–	–	–
CCOC(=O)c1c(N2CCOCC2)[nH]c(=O)c(C(c2ccc(N(C)C)cc2)c2c(O)c(C(=O)OCC)c(N3CCOCC3)[nH]c2=O)c1O	> 100	> 100	> 100	> 100	> 100	> 100	> 100	> 100	> 100	> 100	> 100	> 100	> 100	–	> 100	–	–
CCCCCCCCCCCCCC/C(=C/OCC[N+](C)(C)C)OC(C)=O (tested in a mixture with another compound)	4.16	–	21.2	3.35	13.2	4.04	2.71	2.45	12.5	13.3	1.82	–	5.27	10	5.26	–	–
Clc1ccc(OCc2nnc(CCCCCCCCc3nnc(COc4ccc(Cl)cc4)o3)o2)cc1	> 100	> 100	> 100	> 100	> 100	> 100	> 100	> 100	> 100	> 100	> 100	–	> 100	> 100	–	–	–
CSc1ccc2c(cc1=O)C(NC(=O)c1cc(O)c(OC(=O)O)c(O)c1)CCc1cc(O)c(O)c(O)c1-2 (stereo unspecified)	39.8	65.3	> 90	> 90	> 9	41.9	32.9	> 90	26.7	42.3	40.2	–	–	–	–	–	–
CCN(CC)CCNC(=O)c1ccccc1Nc1c(Cl)cccc1Cl	30.2	–	–	30.9	20.4	–	20.7	27.9	27.1	–	19	–	–	–	–	–	–
CCCC/C=C1\CCC(CN2CCOCC2)C1=O (stereo unspecified)	2.59	7.38	4.95	29.6	32.9	3.74	8.35	2.89	10.7	5.82	12.1	31.3	26.2	22.7	–	–	–
S=C(NNC1=NCCCCN1)Nc1ccccc1	> 100	> 100	> 100	> 100	> 100	> 100	> 100	–	> 100	> 100	> 100	> 100	> 100	> 100	–	–	–
COc1cc([C@@H]2c3cc4c(cc3[C@@H](NC(=O)c3ccc(C(C)=O)cc3)C3COC(=O)[C@@H]32)OCO4)cc(OC)c1O (stereo partly specified)	14.5	5.68	3.33	> 100	7.69	20.3	1.65	72.1	2.03	> 100	6.34	–	–	–	–	–	–
COC(=O)[C@@H]1C[C@H]2[C@H](c3ccccc3Br)[C@@H](OC(C)=O)[C@@H](OCc3ccccc3)ON2O1	–	> 100	–	> 100	> 100	> 100	> 100	> 100	> 100	> 100	> 100	> 100	> 100	> 100	–	–	–
CN1C(=O)c2cccc3c([N+](=O)[O-])ccc(c23)C1=O	–	18.3	31.1	28	13.4	5.17	13.8	8.61	24.9	25	–	–	–	–	–	–	–
N#CC1(C#N)C(c2ccccc2)NC23CCCCC2C1(C#N)C(=O)N3 (stereo unspecified)	> 100	> 100	> 100	> 100	> 100	> 100	> 100	> 100	> 100	> 100	> 100	> 100	> 100	> 100	–	–	–
CCC(=O)NCC1(c2c[nH]c3ccccc23)SCCS1	> 100	> 100	> 100	> 100	> 100	> 100	> 100	–	> 100	> 100	> 100	–	–	–	–	–	–
